{"source": "paper PMC12730863", "about": "(Biomedicines, 2025)", "key": {"[1]": {"tested_on": "HCT-8/V cells", "assay": "Cytotoxicity assay (MTT, 72 h)", "assay_type": "cell-based, human", "conditions": "for IC50 / Fold Resistance: chemotherapeutic drug alone; for Fold Resistance: relative to IC50 of HCT-8 without inhibitors", "procedure": "All cell lines were grown in Dulbecco’s modified Eagle’s medium supplemented with 10% CellMax fetal bovine serum (#SA301.02.V) from Lanzhou Minhai Bio-Engineering Co. (Lanzhou, China) and maintained in a humidified incubator at 37 °C with 5% CO2.\n(§1) Cells were seeded into 96-well plates at a concentration of 5 × 10^3 cells per well. Following cell attachment, the respective agents were added for a 72-h incubation period. Upon treatment completion, 500 μg/mL MTTwas added and the plates were incubated for 4 h. Subsequently, the supernatant was carefully aspirated, and 50 μL DMSO was added. Absorbance at 570 nm was measured via BioTek Synergy H1 plate reader (Agilent Technologies, Santa Clara, CA, USA). IC50 values were calculated with GraphPad Prism 8.0."}, "[2]": {"tested_on": "HCT-8 cells", "assay": "Cytotoxicity assay (MTT, 72 h)", "assay_type": "cell-based, human", "conditions": "for Fold Resistance / IC50: HCT-8, chemotherapeutic drug alone; for Fold Resistance: relative to IC50 of HCT-8 without inhibitors", "procedure": "as §1"}, "[3]": {"tested_on": "HCT-8/V cells", "assay": "Drug accumulation assay (flow cytometry)", "assay_type": "cell-based, human", "procedure": "(§2) Fluorescence imaging was performed using an Olympus CKX53 microscope (Tokyo, Japan) to assess the intracellular accumulation of the substrate drugs. Subsequently, cells were harvested, and fluorescent quantitative analysis was conducted using a Beckman CytoFLEX flow cytometer. The data were processed via FlowJo v10.8 software."}, "[4]": {"tested_on": "HCT-8 cells", "assay": "Drug accumulation assay (flow cytometry)", "assay_type": "cell-based, human", "conditions": "HCT-8 parental cells", "procedure": "as §2"}, "[5]": {"target": "T1, ABCB1 (Homo sapiens, UniProt P08183)", "T1 construct": "purchased Promega Corporation V3601", "T1 sequence (P08183 whole entry)": "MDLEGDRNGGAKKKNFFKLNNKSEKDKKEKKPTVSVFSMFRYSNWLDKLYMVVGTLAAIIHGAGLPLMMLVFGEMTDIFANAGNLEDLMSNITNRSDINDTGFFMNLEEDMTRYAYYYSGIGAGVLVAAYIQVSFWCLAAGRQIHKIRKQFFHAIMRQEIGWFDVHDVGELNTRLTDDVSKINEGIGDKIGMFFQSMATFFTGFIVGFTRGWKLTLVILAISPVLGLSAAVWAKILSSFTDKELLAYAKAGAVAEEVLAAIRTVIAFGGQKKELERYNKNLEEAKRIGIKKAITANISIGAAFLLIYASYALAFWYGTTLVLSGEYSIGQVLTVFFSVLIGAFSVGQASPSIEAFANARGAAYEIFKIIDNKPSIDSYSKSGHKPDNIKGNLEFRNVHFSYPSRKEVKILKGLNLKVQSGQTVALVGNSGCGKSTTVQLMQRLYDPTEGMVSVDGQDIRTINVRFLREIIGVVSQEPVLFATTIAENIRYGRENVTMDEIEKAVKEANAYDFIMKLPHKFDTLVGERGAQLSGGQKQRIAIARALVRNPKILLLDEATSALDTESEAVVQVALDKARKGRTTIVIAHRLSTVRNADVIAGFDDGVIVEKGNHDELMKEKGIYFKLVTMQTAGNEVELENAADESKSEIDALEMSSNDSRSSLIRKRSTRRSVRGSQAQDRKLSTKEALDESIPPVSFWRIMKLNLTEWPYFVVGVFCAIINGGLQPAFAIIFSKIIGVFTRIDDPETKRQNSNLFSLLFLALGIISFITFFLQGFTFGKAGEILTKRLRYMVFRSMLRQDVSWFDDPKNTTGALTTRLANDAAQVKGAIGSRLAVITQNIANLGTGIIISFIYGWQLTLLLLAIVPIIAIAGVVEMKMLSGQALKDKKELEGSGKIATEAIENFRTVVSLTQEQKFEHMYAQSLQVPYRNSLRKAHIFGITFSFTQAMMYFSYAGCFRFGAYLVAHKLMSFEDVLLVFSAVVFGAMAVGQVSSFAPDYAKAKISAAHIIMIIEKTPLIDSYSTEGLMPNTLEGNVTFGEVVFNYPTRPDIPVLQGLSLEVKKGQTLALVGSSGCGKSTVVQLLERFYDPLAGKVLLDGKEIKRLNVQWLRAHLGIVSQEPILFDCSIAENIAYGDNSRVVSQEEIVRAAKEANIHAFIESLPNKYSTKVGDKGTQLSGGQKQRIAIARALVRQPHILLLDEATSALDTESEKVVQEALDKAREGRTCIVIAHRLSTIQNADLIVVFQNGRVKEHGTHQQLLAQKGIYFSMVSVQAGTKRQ", "assay": "ABCB1 ATPase activity assay", "assay_type": "biochemical", "conditions": "5 mM Mg2+-ATP, 37 °C, 40 min, luminescence; read-out: IC50 of inhibition of the ATPase activity of ABCB1", "procedure": "The detection was performed using anABCB1 ATPase Activity Assay Kit (#V3601, Promega Corporation, Madison, WI, USA). […] Subsequently, 5 mM Mg^2+-ATP was introduced to initiate the ATPase activity reaction. […] Finally, the emitted light was measured with a multi-functional microplate reader manufactured by Gene Company Limited (Chai Wan, Hong Kong)."}, "[6]": {"tested_on": "ABCB1", "assay": "Western blot of ABCB1 expression in HCT-8/V cells", "assay_type": "cell-based, human", "conditions": "10 μM and 30 μM H89 for 0.5, 3 and 72 h", "method": "Cells were placed in pre-cooled lysis buffer (containing 0.1% sodium dodecyl sulfate, 0.5% sodium deoxycholate, 1% Nonidet P-40, 10 ng/mL phenylmethanesulfonyl fluoride and 0.03% aprotinin) and lysed on ice for 30 min. After centrifugation (14,000× g, 10 min), the clear supernatant was collected. Proteins were separated by 10% sodium dodecyl sulfatepolyacrylamidegel electrophoresis and subsequently transferred to polyvinylidene difluoride membranes. The membranes were blocked with 5% BSA at room temperature for 1 h, followed by sequential incubation with primary antibodies specific to the target protein and horseradish peroxidase-conjugated secondary antibodies. Ultimately, signal detection was conducted via chemiluminescence using a gel imaging system from Bio-Rad Laboratories."}}}
{"smiles": "COc1cccc2c1C(=O)c1c(O)c3c(c(O)c1C2=O)C[C@@](O)(C(=O)CO)C[C@@H]3O[C@H]1C[C@H](N)[C@H](O)[C@H](C)O1", "note": "[Doxorubicin, doxorubicin]", "values": [{"measurement": "IC50", "setting": "[1]; Homo sapiens, 72 h MTT", "value": "6.98 ± 0.444", "unit": "µM"}, {"measurement": "Fold Resistance", "setting": "[1]", "value": 19.94, "unit": "fold"}, {"measurement": "Fold Resistance", "setting": "[2]", "value": 1.0, "unit": "fold"}, {"measurement": "IC50", "setting": "[2]; Homo sapiens, 72 h MTT", "value": "0.35 ± 0.081", "unit": "µM"}]}
{"smiles": "O=C1[O][Pt]2([NH][C@@H]3CCCC[C@H]3[NH]2)[O]C1=O", "note": "[Oxaliplatin, oxaliplatin]", "values": [{"measurement": "IC50", "setting": "[1]; 72 h MTT", "value": "10.1 ± 0.09", "unit": "µM"}, {"measurement": "Fold Resistance", "setting": "[1]", "value": 1.08, "unit": "fold"}, {"measurement": "IC50", "setting": "[2]; 72 h MTT", "value": "9.3 ± 0.549", "unit": "µM"}, {"measurement": "Fold Resistance", "setting": "[2]", "value": 1.0, "unit": "fold"}]}
{"smiles": "O=S(=O)(NCCNCC=Cc1ccc(Br)cc1)c1cccc2cnccc12", "note": "[H89, N-[2-(p-bromocinnamylamino)ethyl]-5-isoquinolinesulfonamide]", "values": [{"measurement": "Intracellular accumulation of substrate drugs compared with verapamil", "setting": "[3]; 10 μM H89 vs 10 μM verapamil", "value": "achieved or even exceeded the inhibitory effect of verapamil"}, {"measurement": "Intracellular rhodamine 123 levels", "setting": "[3]; 30 μM H89", "value": "comparable to that in HCT-8 cells"}, {"measurement": "Intracellular accumulation of doxorubicin and rhodamine 123", "setting": "[3]; 1 h pretreatment, then 10 μM doxorubicin or rhodamine 123 for 2 h", "value": "elevated doxorubicin and rhodamine 123 levels in HCT-8/V cells dose-dependently"}, {"measurement": "Intracellular accumulation of doxorubicin and rhodamine 123", "setting": "[4]", "value": "not observed"}, {"measurement": "Fold Resistance to Doxorubicin in combination", "setting": "[1]; Doxorubicin + 3 μM of the labelled inhibitor", "value": 4.53, "unit": "fold"}, {"measurement": "Fold Resistance to Doxorubicin in combination", "setting": "[1]; Doxorubicin + 10 μM of the labelled inhibitor", "value": 1.85, "unit": "fold"}, {"measurement": "Fold Resistance to Oxaliplatin in combination", "setting": "[1]; Oxaliplatin + 3 μM of the labelled inhibitor", "value": 0.89, "unit": "fold"}, {"measurement": "Fold Resistance to Oxaliplatin in combination", "setting": "[1]; Oxaliplatin + 10 μM of the labelled inhibitor", "value": 0.79, "unit": "fold"}, {"measurement": "Fold Resistance to Vincristine in combination", "setting": "[1]; Vincristine + 3 μM of the labelled inhibitor", "value": 5.60, "unit": "fold"}, {"measurement": "Fold Resistance to Vincristine in combination", "setting": "[1]; Vincristine + 10 μM of the labelled inhibitor", "value": 1.88, "unit": "fold"}, {"measurement": "Cytotoxicity of H89 alone", "setting": "[1]; at concentrations below 30 μM, 72 h MTT", "value": "low cytotoxicity"}, {"measurement": "Fold Resistance to Doxorubicin in combination", "setting": "[2]; HCT-8, Doxorubicin + 3 μM of the labelled inhibitor", "value": 1.06, "unit": "fold"}, {"measurement": "Fold Resistance to Doxorubicin in combination", "setting": "[2]; HCT-8, Doxorubicin + 10 μM of the labelled inhibitor", "value": 1.05, "unit": "fold"}, {"measurement": "Fold Resistance to Oxaliplatin in combination", "setting": "[2]; HCT-8, Oxaliplatin + 3 μM of the labelled inhibitor", "value": 0.96, "unit": "fold"}, {"measurement": "Fold Resistance to Oxaliplatin in combination", "setting": "[2]; HCT-8, Oxaliplatin + 10 μM of the labelled inhibitor", "value": 0.91, "unit": "fold"}, {"measurement": "Fold Resistance to Vincristine in combination", "setting": "[2]; HCT-8, Vincristine + 3 μM of the labelled inhibitor", "value": 0.96, "unit": "fold"}, {"measurement": "Fold Resistance to Vincristine in combination", "setting": "[2]; HCT-8, Vincristine + 10 μM of the labelled inhibitor", "value": 0.88, "unit": "fold"}, {"measurement": "Cytotoxicity of H89 alone", "setting": "[2]; HCT-8, at concentrations below 30 μM, 72 h MTT", "value": "low cytotoxicity"}, {"measurement": "IC50", "setting": "[5]", "value": 0.246, "unit": "µM"}, {"measurement": "ABCB1 protein level relative to β-tubulin", "setting": "[6]", "value": "did not alter ABCB1 protein level"}]}
{"smiles": "CC[C@]1(O)C[C@H]2CN(CCc3c([nH]c4ccccc34)[C@@](C(=O)OC)(c3cc4c(cc3OC)N(C=O)[C@H]3[C@@](O)(C(=O)OC)[C@H](OC(C)=O)[C@]5(CC)C=CCN6CC[C@]43[C@@H]65)C2)C1", "note": "[Vincristine, vincristine]", "values": [{"measurement": "IC50", "setting": "[1]; Homo sapiens, 72 h MTT", "value": "> 30", "unit": "µM"}, {"measurement": "IC50", "setting": "[2]; Homo sapiens, 72 h MTT", "value": "0.025 ± 0.002", "unit": "µM"}]}
